Test results taken from patent US20230099822A1, “MR1 LIGANDS AND PHARMACEUTICAL COMPOSITIONS FOR IMMUNOMODULATION” (UNIVERSITÄT BASEL, priority 2020, published 2023).

Key:
[1] = system: MR1T cell clones; assay: MR1T cell activation assay with THP-1 cells incubated with compounds (cytokine ELISA); assay type: cell-based, human; conditions: for number of MR1T clones significantly stimulated: fourteen randomly selected MR1T clones, THP-1 cells, IFN-γ (FIG. 12B); for activation of MR1T clone MCA3C3 (IFN-γ): THP-1 cells pre-incubated with 250 μM of molecule (FIG. 8G, right); for activation of MR1T clone DGB129 (IFN-γ): THP-1 cells pre-incubated with 250 μM of molecule (FIG. 8G, middle)
Procedure: MR1T cells (5×10^4/well unless otherwise indicated) were co-cultured with the indicated APCs (10^5 cells per well unless otherwise indicated) for 18 h in 120 μL volume in triplicate.
When nucleobases, nucleosides or nucleotides (all 250 μM) and synthetic compounds M3ADE, OPdA, M1G or OPdC were used to stimulate T cells, the THP-1 cells (10^5/well) were cultured 2 h with the indicated molecules or medium only, prior to T-cell addition. When a single concentration of synthetic antigens was used, 100 μM OPdA, 100 μM OPdC and 13 μM M1G were used for all clones, while 100 μM M3ADE was used for all clones except DGB129, AC1A4, AC1B76 and AVA46 for which 1 μM was used.

[2] = target: T1, MR1 surface expression on THP-1 MR1 cells (Homo sapiens, UniProt Q95460); assay: Cell surface MR1 modulation on APCs (flow cytometry, anti-MR1 mAb 26.5); assay type: cell-based; conditions: for cell surface MR1 upregulation on APCs (in words): pulsed APC / THP1-MR1 cells
T1 construct: expressed in transfected cells; host or cells: THP-1 (ATCC TIB-202) stably expressing MR1 (THP1-MR1)
T1 sequence (Q95460 23-341): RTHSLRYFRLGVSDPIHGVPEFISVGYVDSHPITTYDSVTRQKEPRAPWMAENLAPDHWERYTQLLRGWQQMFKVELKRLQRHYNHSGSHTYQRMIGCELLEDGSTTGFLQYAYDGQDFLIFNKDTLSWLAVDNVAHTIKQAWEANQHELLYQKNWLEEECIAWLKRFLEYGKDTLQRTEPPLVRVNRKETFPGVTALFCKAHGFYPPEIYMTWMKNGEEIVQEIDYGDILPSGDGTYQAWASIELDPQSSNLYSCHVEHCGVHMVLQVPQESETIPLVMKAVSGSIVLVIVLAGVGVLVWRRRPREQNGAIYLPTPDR
T1 sequence (P61769 21-119 partner): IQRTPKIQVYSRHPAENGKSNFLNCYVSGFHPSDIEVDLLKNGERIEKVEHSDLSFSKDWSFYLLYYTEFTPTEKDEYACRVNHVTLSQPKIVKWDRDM
Procedure: […] […] For each condition, net MFI was calculated subtracting isotype MFI from anti-MR1 MFI and fold change of cells treated with synthetic molecules over cells treated with vehicle was calculated.

[3] = system: MR1T cell clones; assay: Competition assay for stimulation of MR1T cell clones; assay type: cell-based, human; conditions: APCs with compound 2 h (3 doses), then antigen at optimal concentration, cytokine ELISA
Procedure: As positive control for competition with antigens, Ac-6-FP was used (100 μM). Supernatants were collected after 24 h for cytokine analysis measured by ELISA.

[4] = THP-1 MR1 cells, 3 h at 37° C., 3 doses each

O=C/C=C/Nc1ncnc2c1ncn2[C@H]1C[C@H](O)[C@@H](CO)O1 (stereo in doubt) [Cmpd 12, N6-(3-oxo-1-propenyl)-2′-deoxyadenosine]
Reactive T cells isolated [1]: YES
MRI upregulation [2, 4]: YES

O=c1[nH]cc([C@@H]2O[C@H](CO)C(O)C2O)c(=O)[nH]1 (stereo in doubt) [Cmpd 36, 5-(3,4-dihydroxy-5-(hydroxymethyl)tetrahydrofuran-2-yl)pyrimidine-2,4(1H,3H)-dione]
Competition [3]: YES
MRI upregulation [2, 4]: YES

O=C/C=C/Nc1ccn([C@H]2C[C@H](O)[C@@H](CO)O2)c(=O)n1 (stereo in doubt) [Cmpd 38, N4-(3-oxo-1-propenyl)-2′-deoxycytidine]
activation of MR1T clone TC5A87 by adduct [1]: activated
stimulation of MR1T clone QY1A16 by adduct [1]: stimulated
number of MR1T clones significantly stimulated [1]: three

Nc1ncnc2c1ncn2[C@@H]1O[C@H](COP(=O)(O)OP(=O)(O)O)[C@@H](O)[C@H]1O [ADP, reference compound]
activation of MR1T clone MCA3C3 (IFN-γ) [1]: activated

Cn1cnc2c(ncn2[C@@H]2O[C@H](CO)[C@@H](O)[C@H]2O)c1=N [Cmpd 1, 1-methyladenosine]
Competition [3]: YES
MRI upregulation [2, 4]: YES

Cc1nc(N)c2ncn([C@@H]3O[C@H](CO)[C@@H](O)[C@H]3O)c2n1 [Cmpd 2, 2-methyladenosine]
Competition [3]: YES
MRI upregulation [2, 4]: YES
cell surface MR1 upregulation on APCs (in words) [2]: upregulation

CO[C@@H]1[C@H](O)[C@@H](CO)O[C@H]1n1cnc2c(N)ncnc21 [Cmpd 3, 2′-O-methyladenosine]
Reactive T cells isolated [1]: YES
MRI upregulation [2, 4]: YES

CN(C)c1ncnc2c1ncn2[C@@H]1O[C@H](CO)[C@@H](O)[C@H]1O [Cmpd 4, N6,N6-dimethyladenosine]
Reactive T cells isolated [1]: YES
compound-specific MR1T cell activation (IFN-γ) ([1]; clones DGB129, MCA2E7 and TC5A87, THP-1 cells, overnight (FIG. 3)): activation
MRI upregulation [2, 4]: YES

C/C(=C\CNc1ncnc2c1ncn2[C@@H]1O[C@H](CO)C(O)C1O)CO (stereo partly drawn) [Cmpd 7, N6-(cis-hydroxyisopent-2-enyl) adenosine]
Competition [3]: YES

CSc1nc(NC/C=C(\C)CO)c2ncn([C@@H]3O[C@H](CO)C(O)C3O)c2n1 (stereo partly drawn) [Cmpd 8, 2-methylthio-N6-(cis-hydroxyisopent-2-enyl) adenosine]
Reactive T cells isolated [1]: YES
MRI upregulation [2, 4]: YES

CSc1nc(NCC=C(C)C)c2ncn([C@@H]3O[C@H](CO)[C@@H](O)[C@H]3O)c2n1 [Cmpd 9, 2-methylthio-N6-isopent-2-enyladenosine]
Competition [3]: YES

O=C/C=C/Nc1ncnc2c1ncn2[C@H]1C[C@H](O)[C@@H](CO)O1 [Cmpd 12, N6-(3-oxo-1-propenyl)-2′-deoxyadenosine]
activation of MR1T clone AC1A4 by adduct [1]: activated
activation of MR1T clone TC5A87 by adduct [1]: activated
stimulation of MR1T clone QY1A16 by adduct [1]: stimulated
number of MR1T clones significantly stimulated [1]: eight

CCCCCC(=O)Cc1cnc2c3ncn([C@H]4C[C@H](O)[C@@H](CO)O4)c3ncn12 [Cmpd 14, 1-(3-((2R,4S,5R)-4-hydroxy-5-(hydroxymethyl)tetrahydrofuran-2-yl)-3H-imidazo[2,1-i]purin-7-yl)heptan-2-one]
MRI upregulation [2, 4]: YES

Cn1c(N)nc2c(ncn2[C@@H]2O[C@H](CO)[C@@H](O)[C@H]2O)c1=O [Cmpd 15, 1-methylguanosine]
Competition [3]: YES
Reactive T cells isolated [1]: YES

CNc1nc2c(ncn2[C@@H]2O[C@H](CO)[C@@H](O)[C@H]2O)c(=O)[nH]1 [Cmpd 16, N2-methylguanosine]
MRI upregulation [2, 4]: YES

C[n+]1cn([C@@H]2O[C@H](CO)[C@@H](O)[C@H]2O)c2nc(N)[nH]c(=O)c21 [Cmpd 17, 7-methylguanosine]
Competition [3]: YES
Reactive T cells isolated [1]: YES

CO[C@@H]1[C@H](O)[C@@H](CO)O[C@H]1n1cnc2c(=O)[nH]c(N)nc21 [Cmpd 18, 2′-O-methylguanosine]
Competition [3]: YES
MRI upregulation [2, 4]: YES

O=c1c2nc[nH]c2nc2ncccn12 [Cmpd 24, pyrimido(1,2-a)purin-10(1H)-one]
Reactive T cells isolated [1]: YES
activation of MR1T clone AC1A4 by adduct [1]: activated
response to THP-1 cells when adduct added ([1]; M1G or M3ADE added to clones QY1A16 and QY1C3, respectively): significant decreased response
number of MR1T clones significantly stimulated [1]: three
MRI upregulation [2, 4]: YES

CCCCCC(=O)Cc1c[nH]c2nc3c(ncn3[C@H]3C[C@H](O)[C@@H](CO)O3)c(=O)n12 [Cmpd 25, 3-((2R,5R)-4-hydroxy-5-(hydroxymethyl)tetrahydrofuran-2-yl)-7-(2-oxoheptyl)-3H-imidazo[1,2-a]purin-9(5H)-one]
MRI upregulation [2, 4]: YES

CO[C@@H]1[C@H](O)[C@@H](CO)O[C@H]1n1ccc(N)nc1=O [Cmpd 29, 2′-O-methylcytidine]
Competition [3]: YES
MRI upregulation [2, 4]: YES

Cc1cn([C@@H]2O[C@H](CO)[C@@H](O)[C@H]2O)c(=O)[nH]c1=O [Cmpd 31, 5-methyluridine]
Competition [3]: YES
MRI upregulation [2, 4]: YES

CO[C@@H]1[C@H](O)[C@@H](CO)O[C@H]1n1ccc(=O)n(C)c1=O [Cmpd 32, 3,2′-O-dimethyluridine]
Competition [3]: YES
MRI upregulation [2, 4]: YES

Nc1nc2c(c(CN[C@H]3C=C[C@H](O)[C@@H]3O)cn2[C@@H]2O[C@H](CO)[C@@H](O)[C@H]2O)c(=O)[nH]1 [Cmpd 33, Queuosine]
Competition [3]: YES
MRI upregulation [2, 4]: YES

COC(=O)N[C@@H](CCc1c(C)nc2n(C)c3c(ncn3[C@@H]3O[C@H](CO)[C@@H](O)[C@H]3O)c(=O)n12)C(=O)OC [Cmpd 34, Wybutosine]
Competition [3]: YES
MRI upregulation [2, 4]: YES

O=C/C=C/Nc1ccn([C@H]2C[C@H](O)[C@@H](CO)O2)c(=O)n1 [Cmpd 38, N4-(3-oxo-1-propenyl)-2′-deoxycytidine]
MRI upregulation [2, 4]: YES

CSc1ncnc2c1ncn2[C@@H]1O[C@H](CO)[C@@H](O)[C@H]1O [Cmpd 40, (2R,3S,4R,5R)-2-(hydroxymethyl)-5-(6-(methylthio)-9H-purin-9-yl)tetrahydrofuran-3,4-diol]
Reactive T cells isolated [1]: YES
MRI upregulation [2, 4]: YES

CNc1ncnc2c1ncn2[C@@H]1O[C@H](CO)[C@@H](O)[C@H]1O [Cmpd 42, N6-methyladenosine]
Competition [3]: YES
MRI upregulation [2, 4]: YES

Cn1c(N)nc2[nH]cnc2c1=O [Cmpd 47, 1-Methylguanine]
MRI downmodulation [2, 4]: YES

CNc1nc2c(ncn2[C@H]2C[C@H](O)[C@@H](CO)O2)c(=O)[nH]1 [Cmpd 48, N2-Methyl-2′-deoxyguanosine]
MRI upregulation [2, 4]: YES

CSC[C@H]1O[C@@H](n2cnc3c(N)ncnc32)[C@H](O)[C@@H]1O [Cmpd 52, 5′-Deoxy-5′-(methylthio)adenosine]
Competition [3]: YES

CNc1ncnc2c1ncn2[C@H]1C[C@H](O)[C@@H](CO)O1 [Cmpd 53, N6-Methyl-2′-deoxyadenosine]
Reactive T cells isolated [1]: YES

OCCNc1ncnc2c1ncn2[C@H]1C[C@H](O)[C@@H](CO)O1 [Cmpd 54, N6-(2-Hydroxyethyl)-2′-deoxyadenosine]
Reactive T cells isolated [1]: YES

CC(=O)C=O [MG, methylglyoxal, reference compound]
MR1T-cell stimulation by GLO1-deficient compared to wild-type THP-1 cells ([1]; clone DGB129, Methylglyoxal (FIG. 9I)): significantly increased
MR1T-cell stimulation with GLO1-overexpressing THP-1 cells ([1]; clone DGB129, Methylglyoxal (FIG. 9J)): failed to induce

CN(C)c1ncnc2c1ncn2[C@@H]1O[C@H](CO)[C@@H](O)[C@H]1O [N6,N6-dimethyladenosine]
cell surface MR1 upregulation on APCs (in words) [2]: upregulation

Nc1ncnc2nc[nH]c12 [adenine, reference compound]
activation of MR1T clone DGB129 (IFN-γ) [1]: reacted

Nc1ncnc2c1ncn2[C@@H]1O[C@H](CO)[C@@H](O)[C@H]1O [adenosine, reference compound]
activation of MR1T clone DGB129 (IFN-γ) [1]: reacted

Nc1ncnc2c1ncn2[C@H]1C[C@H](O)[C@@H](CO)O1 [deoxyadenosine, reference compound]
activation of MR1T clone DGB129 (IFN-γ) [1]: reacted
MR1T reactivity using GLO1-deficient THP-1 cells as APCs ([1]; clone DGB129, deoxyadenosine (FIG. 9K)): increased
MR1T reactivity using GLO1-overexpressing THP-1 cells ([1]; clone DGB129, deoxyadenosine (FIG. 9L)): decreased

Nc1nc2c(ncn2[C@H]2C[C@H](O)[C@@H](CO)O2)c(=O)[nH]1 [deoxyguanosine, reference compound]
activation of MR1T clone MCA3C3 (IFN-γ) [1]: activated

Nc1nc2nc[nH]c2c(=O)[nH]1 [guanine, reference compound]
activation of MR1T clone MCA3C3 (IFN-γ) [1]: activated

Nc1nc2c(ncn2[C@@H]2O[C@H](CO)[C@@H](O)[C@H]2O)c(=O)[nH]1 [guanosine, reference compound]
activation of MR1T clone MCA3C3 (IFN-γ) [1]: activated

OC[C@H]1O[C@@H](n2cnc3c(O)ncnc32)[C@H](O)[C@@H]1O [inosine, reference compound]
activation of MR1T clone DGB129 (IFN-γ) [1]: reacted

O=c1[nH]c(=O)c2ncn([C@@H]3O[C@H](CO)[C@@H](O)[C@H]3O)c2[nH]1 [xanthosine, reference compound]
activation of MR1T clone MCA3C3 (IFN-γ) [1]: activated
